Measurements taken from article PMC8850433, “CRISPR-assisted rational flux-tuning and arrayed CRISPRi screening of an L-proline exporter for L-proline hyperproduction” (Nature Communications, 2022).

Target: T1, Cgl2622 (Corynebacterium glutamicum, UniProt Q79VD1)
T1 construct: full-length membrane exporter, expressed from plasmid under IPTG-inducible Ptrc in cgl2622-deleted C. glutamicum
Type: cell-based
Details: intact C. glutamicum cells, CGXII medium, 20 g/L glucose, 3 mM Thr-Pro peptide, 30 °C; efflux

T1 sequence (Q79VD1 1-489): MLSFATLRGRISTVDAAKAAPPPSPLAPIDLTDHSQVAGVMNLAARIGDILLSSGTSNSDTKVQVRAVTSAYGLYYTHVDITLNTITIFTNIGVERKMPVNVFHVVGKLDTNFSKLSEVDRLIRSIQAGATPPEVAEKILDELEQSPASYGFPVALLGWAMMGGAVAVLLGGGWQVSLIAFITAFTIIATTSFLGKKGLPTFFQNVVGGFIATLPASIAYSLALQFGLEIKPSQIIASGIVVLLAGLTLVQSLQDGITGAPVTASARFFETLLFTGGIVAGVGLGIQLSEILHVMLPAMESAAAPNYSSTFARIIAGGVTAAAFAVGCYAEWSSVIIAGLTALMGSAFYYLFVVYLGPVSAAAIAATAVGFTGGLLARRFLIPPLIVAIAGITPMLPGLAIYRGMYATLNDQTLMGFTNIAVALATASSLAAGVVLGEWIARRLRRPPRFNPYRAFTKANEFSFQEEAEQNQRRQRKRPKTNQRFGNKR

O=C(O)[C@@H]1CCCN1 [L-proline]
Thr-Pro peptide uptake and amino acid export assay, deletion vs complementation,: These results further verify the function of Cgl2622 as an L-proline exporter.
